The source of these data is paper PMC7528081, “The electrophysiological effect of cannabidiol on hERG current and in guinea-pig and rabbit cardiac preparations” (Scientific Reports, 2020).

The experiment has as its target T1, hERG potassium channel (Homo sapiens, UniProt Q12809).
T1 construct: gene KCNH2
Kind of experiment: automated whole-cell patch clamp (Patchliner), HEK […] cells expressing hERG, room temperature. Format: cell-based. Background: In patch-clamp work, channel activity is measured electrically.

A word on the IC50: it is the concentration needed to halve the response being measured. Lower therefore signals greater potency in that assay.

Each structure is given as a SMILES string.

T1 sequence (Q12809 whole entry): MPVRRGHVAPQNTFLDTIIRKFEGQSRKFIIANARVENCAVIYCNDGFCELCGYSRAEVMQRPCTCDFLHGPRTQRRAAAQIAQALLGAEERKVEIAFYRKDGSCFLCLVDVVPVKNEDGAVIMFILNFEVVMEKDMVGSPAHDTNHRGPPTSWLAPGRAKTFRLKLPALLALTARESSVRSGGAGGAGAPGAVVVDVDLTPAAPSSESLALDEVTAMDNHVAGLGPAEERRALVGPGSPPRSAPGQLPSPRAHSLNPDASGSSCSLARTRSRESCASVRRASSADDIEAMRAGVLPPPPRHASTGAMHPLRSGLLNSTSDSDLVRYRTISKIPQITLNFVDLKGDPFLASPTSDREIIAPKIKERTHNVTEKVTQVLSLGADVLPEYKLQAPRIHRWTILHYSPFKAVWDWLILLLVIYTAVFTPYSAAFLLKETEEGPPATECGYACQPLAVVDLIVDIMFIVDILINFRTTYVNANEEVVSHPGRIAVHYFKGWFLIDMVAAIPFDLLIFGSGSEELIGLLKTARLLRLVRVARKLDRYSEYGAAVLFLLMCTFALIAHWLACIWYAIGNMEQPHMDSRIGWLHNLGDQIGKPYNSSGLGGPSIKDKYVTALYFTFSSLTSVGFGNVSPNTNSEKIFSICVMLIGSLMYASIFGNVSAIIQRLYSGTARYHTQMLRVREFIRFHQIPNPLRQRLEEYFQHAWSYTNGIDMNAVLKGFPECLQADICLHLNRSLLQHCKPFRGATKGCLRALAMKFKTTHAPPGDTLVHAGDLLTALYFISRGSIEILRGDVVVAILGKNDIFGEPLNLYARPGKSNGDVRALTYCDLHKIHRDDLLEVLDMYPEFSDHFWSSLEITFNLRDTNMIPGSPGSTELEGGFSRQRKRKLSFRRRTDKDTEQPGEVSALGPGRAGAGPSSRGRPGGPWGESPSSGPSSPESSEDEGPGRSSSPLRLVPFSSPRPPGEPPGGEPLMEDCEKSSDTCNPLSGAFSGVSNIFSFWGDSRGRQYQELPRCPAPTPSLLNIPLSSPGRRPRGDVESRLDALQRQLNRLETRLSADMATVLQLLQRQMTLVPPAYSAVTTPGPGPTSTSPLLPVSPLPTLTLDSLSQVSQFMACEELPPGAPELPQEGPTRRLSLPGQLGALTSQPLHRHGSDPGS

As for `C=C(C)[C@@H]1CCC(C)=C[C@H]1c1c(O)cc(CCCCC)cc1O` [cannabidiol], the IC50 is 2.07 ± 0.12 µM.
`CCCCCc1cc(O)c2c(c1)OC(C)(C)[C@@H]1CCC(C(=O)O)=C[C@@H]21` [11-nor-9-carboxy-tetrahydrocannabinol] had an IC50 of 65.4 ± 3.82 µM.
`CCCCCc1cc(O)c2c(c1)OC(C)(C)[C@@H]1CCC(C)=C[C@@H]21` [tetrahydrocannabinol]: the IC50 was 10.3 ± 0.55 µM. This IC50 lies about 6.3-fold lower than the previous one.
